Where “and” joins values, the source holds several entries; their conditions need not be identical. Equal values may be shown once. Inconclusive results and toxic doses are left out. How the source made its calls: active means survival T/C of 150% or more; inactive means T/C below 125% in these data. Peptide text beside a SMILES is read from it. * marks the point of attachment. Cbz = O=C(OCc1ccccc1)*
Tested on: BDF1 mice, B16 melanoma ip, median survival T/C
Experiment: NCI In Vivo Anticancer Drug Screen. Data for tumor model B16 Melanoma (intraperitoneal) in B6D2F1 (BDF1) mice
Conditions: endpoint: median survival time, higher = longer survival
Experimental: The antitumor activity of compounds was measured in mice bearing transplantable tumors. Survival or tumor size were measured and the results are expressed as the measurement made in the treated group (T) divided by the measurement made in the vehicle treated control group (C). The tumor model used in this assay is B16 Melanoma (intraperitoneal) in B6D2F1 (BDF1) mice

[1] = dose: 25.0 mg/kg/injection, schedule: Q01DX009 (ip), vehicle: Klucel (hydroxypropylcellulose) (HPC)
[2] = dose: 50.0 mg/kg/injection, schedule: Q01DX009 (ip), vehicle: Klucel (hydroxypropylcellulose) (HPC)
[3] = dose: 100.0 mg/kg/injection, schedule: Q01DX009 (ip), vehicle: Klucel (hydroxypropylcellulose) (HPC)
[4] = dose: 200.0 mg/kg/injection, schedule: Q01DX009 (ip), vehicle: Klucel (hydroxypropylcellulose) (HPC)
[5] = dose: 50.0 mg/kg/injection, schedule: Q01DX009 (ip), vehicle: saline with Tween-80
[6] = dose: 100.0 mg/kg/injection, schedule: Q01DX009 (ip), vehicle: saline with Tween-80
[7] = dose: 200.0 mg/kg/injection, schedule: Q01DX009 (ip), vehicle: saline with Tween-80
[8] = dose: 400.0 mg/kg/injection, schedule: Q01DX009 (ip), vehicle: saline with Tween-80
[9] = dose: 25.0 mg/kg/injection, schedule: Q01DX009 (ip), vehicle: saline with Tween-80
[10] = dose: 25.0 mg/kg/injection, schedule: Q04DX003 (ip), vehicle: saline with Tween-80
[11] = dose: 12.5 mg/kg/injection, schedule: Q01DX009 (ip), vehicle: saline with Tween-80
[12] = dose: 25.0 mg/kg/injection, schedule: Q01DX009 (ip), vehicle: saline
[13] = dose: 50.0 mg/kg/injection, schedule: Q01DX009 (ip), vehicle: saline

Measured: T/C

CN(N=O)C(=O)N[C@@H](C=O)[C@@H](O)[C@H](O)[C@H](O)CO
inactive: dose: 12.5 mg/kg/injection, schedule: Q01DX009 (ip), vehicle: citric acid 105 % of control | dose: 12.5 mg/kg/injection, schedule: Q01DX009 (ip), vehicle: other 109 % of control and 117 % of control (2×) | dose: 25.0 mg/kg/injection, schedule: Q01DX009 (ip), vehicle: citric acid 106 % of control | dose: 25.0 mg/kg/injection, schedule: Q01DX009 (ip), vehicle: other 105 % of control and 118 % of control and 124 % of control | dose: 37.5 mg/kg/injection, schedule: Q04DX003 (ip), vehicle: saline 90 % of control and 115 % of control | dose: 50.0 mg/kg/injection, schedule: Q01DX009 (ip), vehicle: citric acid 117 % of control | dose: 75.0 mg/kg/injection, schedule: Q04DX003 (ip), vehicle: saline 118 % of control | dose: 150.0 mg/kg/injection, schedule: Q04DX003 (ip), vehicle: saline 116 % of control | dose: 300.0 mg/kg/injection, schedule: Q04DX003 (ip), vehicle: saline 45 % of control and 118 % of control

O=C(c1ccccc1Cl)N(Cc1ccccc1)c1ccccc1
inactive: [1] 93 % of control | [2] 93 % of control | [3] 90 % of control and 100 % of control

NC(Cc1cc(I)c(Oc2cc(I)c(O)c(I)c2)c(I)c1)C(=O)O (stereo unspecified)
inactive: dose: 1.0 mg/kg/injection, schedule: Q01DX009 (ip), vehicle: saline 93 % of control | dose: 2.0 mg/kg/injection, schedule: Q01DX009 (ip), vehicle: saline 101 % of control | dose: 4.0 mg/kg/injection, schedule: Q01DX009 (ip), vehicle: saline 92 % of control | dose: 16.0 mg/kg/injection, schedule: Q01DX009 (ip), vehicle: saline 101 % of control

CC(=O)OC(C)(C)/C=C/C(=O)[C@](C)(O)[C@H]1[C@H](O)C[C@@]2(C)[C@@H]3CC=C4[C@@H](C=C(O)C(=O)C4(C)C)[C@]3(C)C(=O)C[C@]12C
inactive: dose: 0.25 mg/kg/injection, schedule: Q01DX009 (ip), vehicle: saline with Tween-80 90 % of control | dose: 0.5 mg/kg/injection, schedule: Q01DX009 (ip), vehicle: saline with Tween-80 109 % of control | dose: 1.0 mg/kg/injection, schedule: Q01DX009 (ip), vehicle: saline with Tween-80 102 % of control | dose: 2.0 mg/kg/injection, schedule: Q01DX009 (ip), vehicle: saline with Tween-80 93 % of control | dose: 4.0 mg/kg/injection, schedule: Q01DX009 (ip), vehicle: saline with Tween-80 95 % of control

Cc1nonc1-c1ccc2c(c1)OCO2
inactive: [1] 98 % of control | [2] 93 % of control | [3] 91 % of control | [4] 99 % of control

ClC(Cl)(Cl)C(N1CCN(c2ccccc2)CC1)N1CCN(c2ccccc2)CC1
inactive: [5] 113 % of control | [6] 96 % of control | [7] 112 % of control | [8] 91 % of control

Cc1cc(C)c(OCC(O)CO)c(C)c1 (stereo unspecified)
inactive: [6] 104 % of control | [7] 93 % of control

CCO/C=C1\SC(=S)N(c2ccccc2C)C1=O
inactive: [9] 92 % of control | [5] 90 % of control | [6] 91 % of control

CSc1ncc(C#N)c(N)n1
inactive: [5] 107 % of control | [6] 99 % of control | [7] 97 % of control

CCOc1ccccc1NC(=O)Nc1ccccc1Cl
inactive: [6] 103 % of control | [7] 94 % of control | [8] 89 % of control

C=CCNC(=O)/C=C/C(=O)NCC=C
inactive: [10] 123 % of control | dose: 100.0 mg/kg/injection, schedule: Q04DX003 (ip), vehicle: saline with Tween-80 121 % of control

CCCCCCCCCCCCCCC/C([O-])=N/[N+](C)(C)CC(C)O (stereo unspecified)
inactive: dose: 25.0 mg/kg/injection, schedule: Q01DX001 (ip), vehicle: saline 97 % of control | dose: 50.0 mg/kg/injection, schedule: Q01DX001 (ip), vehicle: saline 96 % of control | dose: 100.0 mg/kg/injection, schedule: Q01DX001 (ip), vehicle: saline 95 % of control | dose: 200.0 mg/kg/injection, schedule: Q01DX001 (ip), vehicle: saline 95 % of control

Cc1cc(C)c(NC(=O)NC(C)C)c(C)c1
inactive: dose: 100.0 mg/kg/injection, schedule: Q04DX003 (ip), vehicle: Klucel (hydroxypropylcellulose) (HPC) 100 % of control | dose: 200.0 mg/kg/injection, schedule: Q04DX003 (ip), vehicle: Klucel (hydroxypropylcellulose) (HPC) 90 % of control | dose: 400.0 mg/kg/injection, schedule: Q04DX003 (ip), vehicle: Klucel (hydroxypropylcellulose) (HPC) 87 % of control

[N-]=[N+]=C1Cc2ccccc2C1=O
inactive: [3] 97 % of control | [4] 105 % of control

C=C1CCN(c2ccccc2)C1=O
inactive: dose: 4.0 mg/kg/injection, schedule: Q01DX009 (ip), vehicle: saline + alcohol 96 % of control | dose: 8.0 mg/kg/injection, schedule: Q01DX009 (ip), vehicle: saline + alcohol 116 % of control | dose: 16.0 mg/kg/injection, schedule: Q01DX009 (ip), vehicle: saline + alcohol 112 % of control | dose: 64.0 mg/kg/injection, schedule: Q01DX009 (ip), vehicle: saline + alcohol 107 % of control

O=c1[nH]c(=O)n(C2CC(O)C(CO)O2)cc1I (stereo unspecified)
inactive: [9] 106 % of control | [5] 118 % of control | [6] 123 % of control | [7] 116 % of control | [8] 120 % of control
active: dose: 800.0 mg/kg/injection, schedule: Q01DX009 (ip), vehicle: saline with Tween-80 150 % of control

[Cl][Pt+2][Cl].[NH-]c1ccc([N+](=O)[O-])cc1[NH-]
inactive: dose: 5.0 mg/kg/injection, schedule: Q01DX009 (ip), vehicle: saline with Tween-80 103 % of control | dose: 10.0 mg/kg/injection, schedule: Q01DX009 (ip), vehicle: saline with Tween-80 107 % of control | dose: 20.0 mg/kg/injection, schedule: Q01DX009 (ip), vehicle: saline with Tween-80 107 % of control | dose: 40.0 mg/kg/injection, schedule: Q01DX009 (ip), vehicle: saline with Tween-80 118 % of control | dose: 80.0 mg/kg/injection, schedule: Q01DX009 (ip), vehicle: saline with Tween-80 115 % of control

CC(=O)Nc1ccc(CCCCc2cccc(C(=N)N)c2)cc1
inactive: dose: 2.3 mg/kg/injection, schedule: Q04DX003 (ip), vehicle: saline with Tween-80 86 % of control | dose: 4.6 mg/kg/injection, schedule: Q04DX003 (ip), vehicle: saline with Tween-80 86 % of control | dose: 9.3 mg/kg/injection, schedule: Q04DX003 (ip), vehicle: saline with Tween-80 95 % of control | [11] 97 % of control | dose: 18.75 mg/kg/injection, schedule: Q04DX003 (ip), vehicle: saline with Tween-80 116 % of control | [9] 97 % of control

NC(=O)C(Cc1ccccc1)NC(=O)C(Cc1ccccc1)NC(=O)C(Cc1ccccc1)NC(=O)OCc1ccccc1 (stereo not drawn) (Cbz-Phe-Phe-Phe-NH2; configuration not given here)
inactive: dose: 3.12 mg/kg/injection, schedule: Q01DX009 (ip), vehicle: saline with Tween-80 100 % of control | dose: 6.25 mg/kg/injection, schedule: Q01DX009 (ip), vehicle: saline with Tween-80 89 % of control | [11] 96 % of control | [9] 91 % of control

CN(C)CCOCCOC(=O)N1c2ccccc2Sc2ccccc21
inactive: dose: 6.25 mg/kg/injection, schedule: Q01DX009 (ip), vehicle: saline 102 % of control | dose: 12.5 mg/kg/injection, schedule: Q01DX009 (ip), vehicle: saline 112 % of control | [12] 116 % of control | [13] 109 % of control

O=C(O)CC(Br)C(=O)c1ccccc1 (stereo unspecified)
inactive: dose: 12.5 mg/kg/injection, schedule: Q04DX003 (ip), vehicle: saline with Tween-80 93 % of control | [10] 86 % of control | dose: 50.0 mg/kg/injection, schedule: Q04DX003 (ip), vehicle: saline with Tween-80 88 % of control

Nc1nc(Cl)nc2c1ncn2C1OC(CO)C(O)C1O (stereo unspecified)
inactive: [12] 95 % of control | [13] 93 % of control | dose: 100.0 mg/kg/injection, schedule: Q01DX009 (ip), vehicle: saline 95 % of control

From PubChem BioAssay AID192 (DTP/NCI, 2004)
